Measured values: patent publication US20240287076A1, “COMPOUNDS FOR TARGETING DEGRADATION OF BRUTON'S TYROSINE KINASE” (BIOGEN MA INC., priority 2021, published 2024)

The compounds below were run against T1, BTK (Homo sapiens, UniProt Q06187) (assay: BTK degradation assay using the HiBiT Method (Nano-Glo HiBiT Lytic Assay, GM01501.3 cells)). Conditions: HiBiT Degradation on GM01501.3 BTK @ 6 hours.
T1 construct: The GM01501.3 cell line endogenously expresses BTK with a HiBiT fusion tag via CRISPR knock-in at its C-terminal region; endogenous in cells; host or cells: GM01501.3 (GM01501 cells engineered by CRISPR knock-in of HiBiT at the BTK locus)
Format: cell-based
Method in brief: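 Degradation read-out: HiBiT luminescence after lytic reagent addition, giving DC50. Compounds dosed from 10 μM in 11 half-log steps (duplicate) onto GM01501.3 cells, whose endogenous BTK carries a C-terminal HiBiT knock-in tag; 6 h exposure, 37 °C, 5% CO2.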

T1 sequence (Q06187 whole entry, the tested form may be a part): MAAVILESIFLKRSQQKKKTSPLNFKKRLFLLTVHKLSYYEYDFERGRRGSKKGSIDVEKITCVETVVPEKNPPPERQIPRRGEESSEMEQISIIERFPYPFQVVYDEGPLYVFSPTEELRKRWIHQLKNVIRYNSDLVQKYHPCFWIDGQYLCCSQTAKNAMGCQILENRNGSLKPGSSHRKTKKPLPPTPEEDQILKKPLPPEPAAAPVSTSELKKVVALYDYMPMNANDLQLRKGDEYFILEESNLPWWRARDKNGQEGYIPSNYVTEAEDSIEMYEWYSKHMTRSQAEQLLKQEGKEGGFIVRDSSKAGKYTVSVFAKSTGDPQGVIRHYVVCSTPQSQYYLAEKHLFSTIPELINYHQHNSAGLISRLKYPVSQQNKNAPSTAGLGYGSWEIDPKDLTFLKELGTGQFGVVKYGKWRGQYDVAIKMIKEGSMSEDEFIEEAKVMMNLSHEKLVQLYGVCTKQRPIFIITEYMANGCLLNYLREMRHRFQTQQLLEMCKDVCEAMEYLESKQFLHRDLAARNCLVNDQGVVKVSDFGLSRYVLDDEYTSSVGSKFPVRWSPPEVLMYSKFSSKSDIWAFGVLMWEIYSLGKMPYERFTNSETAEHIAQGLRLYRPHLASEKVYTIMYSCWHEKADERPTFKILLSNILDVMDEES

Structure (SMILES)	DC50 [µM]
Cc1cc(-c2ncnn3cc(N4CCN(C(=O)CC5CC6(CO5)CN(C(=O)c5ccc(OC7CCC(=O)NC7=O)cc5)C6)CC4)cc23)ccc1CNC(=O)c1noc(C(C)(C)C)n1 (stereo not shown) [Example 190, 5-(tert-butyl)-N-(4-(6-(4-(2-(2-(4-((2,6-dioxopiperidin-3-yl)oxy)benzoyl)-6-oxa-2-azaspiro[3.4]octan-7-yl)acetyl)piperazin-1-yl)pyrrolo[2,1-f][1,2,4]triazin-4-yl)-2-methylbenzyl)-1,2,4-oxadiazole-3-carboxamide]	< 0.1
Cc1cc(-c2ncnn3cc(-c4ccc(CN5CCC(c6ccc(NC7CCC(=O)NC7=O)nc6)CC5)cc4)cc23)ccc1CNC(=O)c1noc(C(C)(C)C)n1 (stereo not shown) [Example 13, 5-tert-butyl-N-[[4-[6-[4-[[4-[6-[(2,6-dioxo-3-piperidyl)amino]-3-pyridyl]-1-piperidyl]methyl]phenyl]pyrrolo[2,1-f][1,2,4]triazin-4-yl]-2-methyl-phenyl]methyl]-1,2,4-oxadiazole-3-carboxamide]	< 0.1
Cc1cc(-c2ncnn3cc(OC4CC(CN5CCC(c6ccc7c(N8CCC(=O)NC8=O)nn(C)c7c6)CC5)C4)cc23)ccc1CNC(=O)c1noc(C(C)(C)C)n1 (stereo not shown) [Example 289, 5-(tert-butyl)-N-(4-(6-(3-((4-(3-(2,4-dioxotetrahydropyrimidin-1(2H)-yl)-1-methyl-1H-indazol-6-yl)piperidin-1-yl)methyl)cyclobutoxy)pyrrolo[2,1-f][1,2,4]triazin-4-yl)-2-methylbenzyl)-1,2,4-oxadiazole-3-carboxamide]	< 0.1
Cc1cc(-c2ncnn3cc(-c4ccc(CN5CCC(c6ccc(NC7CCC(=O)NC7=O)cc6)CC5)cc4)cc23)ccc1CNC(=O)c1cccnc1 (stereo not shown) [Example 90, N-[[4-[6-[4-[[4-[4-[(2,6-dioxo-3-piperidyl)amino]phenyl]-1-piperidyl]methyl]phenyl]pyrrolo[2,1-f][1,2,4]triazin-4-yl]-2-methyl-phenyl]methyl]pyridine-3-carboxamide]	< 0.1

The remaining lines, values ahead:

DC50 [µM]	Structure (SMILES)
< 0.1	Cc1cc(-c2ncnn3cc(CCN4CCC(c5ccc6c(N7CCC(=O)NC7=O)nn(C)c6c5F)CC4)cc23)ccc1CNC(=O)c1noc(C(C)(C)C)n1 [Example 259, 5-(tert-butyl)-N-(4-(6-(2-(4-(3-(2,4-dioxotetrahydropyrimidin-1(2H)-yl)-7-fluoro-1-methyl-1H-indazol-6-yl)piperidin-1-yl)ethyl)pyrrolo[2,1-f][1,2,4]triazin-4-yl)-2-methylbenzyl)-1,2,4-oxadiazole-3-carboxamide]
< 0.1	Cc1c(NC(=O)c2ccc(C(C)(C)O)cc2)cc(F)cc1-c1ncnn2cc(-c3ccc(CN4CCC(c5ccc(NC6CCC(=O)NC6=O)cc5)CC4)cc3)cc12 (stereo not shown) [Example 153, N-[3-[6-[4-[[4-[4-[(2,6-dioxo-3-piperidyl)amino]phenyl]-1-piperidyl]methyl]phenyl]pyrrolo[2,1-f][1,2,4]triazin-4-yl]-5-fluoro-2-methyl-phenyl]-4-(1-hydroxy-1-methyl-ethyl)benzamide]
< 0.1	Cc1cc(-c2ncnn3cc(-c4ccc(CN5CCC(c6ccc(NC7CCC(=O)NC7=O)cc6)CC5)c(F)c4)cc23)ccc1CNC(=O)c1noc(C(C)(C)C)n1 (stereo not shown) [Example 23, 5-tert-butyl-N-[[4-[6-[4-[[4-[4-[(2,6-dioxo-3-piperidyl)amino]phenyl]-1-piperidyl]methyl]-3-fluoro-phenyl]pyrrolo[2,1-f][1,2,4]triazin-4-yl]-2-methyl-phenyl]methyl]-1,2,4-oxadiazole-3-carboxamide]
